Reference: patent US20260248781A1, “SOLUBLE GUANYLATE CYCLASE ACTIVATORS FOR USE IN THE TREATMENT OF HEART FAILURE WITH PRESERVED EJECTION FRACTION IN WOMEN” (BAYER AKTIENGESELLSCHAFT, priority 2022, published 2026)
Where “and” joins values, the source holds several entries; their conditions need not be identical. Identical values can stand only once.

Experiments:
Assay type in all cases: in vivo
[1] = test system: RenTG/L-NAME-supplemented female rats; assay: RenTG rat model: survival rate assessment in female rats (B-1.3); conditions: 3 mg/kg BID, placebo 64.3%
Procedure: Male and female rennin-transgenic rats [TG(mRRen2)27] (RenTG rats) at the age of 8 weeks were used. Rats were randomized in groups with 12-24 rats/group. All groups were then chronically supplemented with L-NAME administrated via drinking water (30-50 mg/l). The L-NAME was dissolved in tap water and stored by room temperature. All groups were treated via oral gavage with either placebo/vehicle consisting of 10% transcutol, 20% cremophor and 70% tap water or different doses of the respective verum. The verum was dissolved in the vehicle and prepared freshly before administration. Study duration with concomitant L-NAME administration and treatment was up to 12 weeks. The baseline blood pressure was measured via tail-cuff method before the start of the treatment and after different time points during the study. Mortality and body weight were assessed on a daily basis. Urine samples were collected via the use of metabolic cages and urine was collected over a period of six hours to quantify proteinuria as correlate of kidney function and different urinary biomarkers for kidney and organ damage. At the end of the study all animals were kept in depth narcotic and bled via aortic puncture and sacrificed by permanent inhaled isoflurane, blood was taken in order to assess plasma parameters, and heart and kidney were weighed and harvested for histopathological evaluation. […]

[2] = test system: RenTG/L-NAME-supplemented male rats; assay: RenTG rat model: kidney function by proteinuria (uPCR) in male rats (B-1.2); conditions: for uPCR % (normalized to placebo): placebo set as 100%
Procedure: (§1) Male and female rennin-transgenic rats [TG(mRRen2)27] (RenTG rats) at the age of 8 weeks were used. Rats were randomized in groups with 12-24 rats/group. All groups were then chronically supplemented with L-NAME administrated via drinking water (30-50 mg/l). The L-NAME was dissolved in tap water and stored by room temperature. All groups were treated via oral gavage with either placebo/vehicle consisting of 10% transcutol, 20% cremophor and 70% tap water or different doses of the respective verum. The verum was dissolved in the vehicle and prepared freshly before administration. Study duration with concomitant L-NAME administration and treatment was up to 12 weeks. The baseline blood pressure was measured via tail-cuff method before the start of the treatment and after different time points during the study. Mortality and body weight were assessed on a daily basis. Urine samples were collected via the use of metabolic cages and urine was collected over a period of six hours to quantify proteinuria as correlate of kidney function and different urinary biomarkers for kidney and organ damage. At the end of the study all animals were kept in depth narcotic and bled via aortic puncture and sacrificed by permanent inhaled isoflurane, blood was taken in order to assess plasma parameters, and heart and kidney were weighed and harvested for histopathological evaluation.
Urinary protein to creatinine ratio in the RenTG/L-NAME-supplemented male rats treated with either placebo (set as 100%) or with 1, 3 and 10 mg/kg example 1 (runcaciguat) BID was investigated (see table is 2).

[3] = test system: RenTG/L-NAME-supplemented male rats; assay: RenTG rat model: survival rate assessment in male rats (B-1.1); conditions: for mortality: placebo 58%
Procedure: as §1
The survival rate in % of the RenTG/L-NAME-supplemented male rats treated with either placebo, or 1, 3 and 10 mg/kg runcaciguat (example 1) BID was investigated (see table 1).

[4] = test system: RenTG/L-NAME-supplemented female rats; assay: RenTG rat model: kidney function by proteinuria (uPCR) in female rats (B-1.4); conditions: 3 mg/kg BID; for uPCR % (normalized to placebo): placebo set as 100%
Procedure: as §1
Urinary protein to creatinine ratio in the RenTG/L-NAME-supplemented female rats treated with either placebo (set as 100%) or 3 mg/kg example 1 BID or example 3 BID respectively. Data are mean±SEM.

[5] = test system: RenTG/L-NAME-supplemented male, female and female OVX rats; assay: RenTG rat model: proteinuria (uPCR) in male, female and female OVX rats, OD dosing (B-1.6); conditions: for Urinary protein to creatinine ratio: 3 mg/kg OD, placebo 100; for reduction of proteinuria: OD
Procedure: as §1
The most striking differences between male and female were seen on proteinuria. […] In female rats these effects were much more pronounced, and proteinuria was reduced by 88% and by 99% in female rats without OVX and with OVX, respectively.

[6] = test system: RenTG/L-NAME-supplemented male, female and female OVX rats; assay: RenTG rat model: survival rate in male, female and female ovariectomized (OVX) rats, head-to-head, OD dosing (B-1.5); conditions: for % survival: 3 mg/kg OD
Procedure: as §1
In male rat 93% of rats survived whereas in female rats all the rats survived in the sGC activator treatment arm (100%). There was no difference in survival rates in female OVX rats compared to non-OVX rats.

C[C@H]([C@H](C(=O)Nc1cc([C@@H](CC(=O)O)C2CC2)ccc1Cl)c1ccc(Cl)cc1)C(F)(F)F [Example 1, (3S)-3-(4-chloro-3-{[(2S,3R)-2-(4-chlorophenyl)-4,4,4-trifluoro-3-methylbutanoyl]amino}phenyl)-3-cyclopropylpropanoic acid]
% survival [1]: 100% | reduction of proteinuria ([2]; 1 mg/kg BID): 15% | uPCR % (normalized to placebo) ([2]; 1 mg/kg BID): 85.4% | reduction of proteinuria ([2]; 3 mg/kg BID): 29% | statistical evaluation of proteinuria reduction ([2]; 3 mg/kg BID): statistically significant | uPCR % (normalized to placebo) ([2]; 3 mg/kg BID): 71.1% | reduction of proteinuria ([2]; 10 mg/kg BID): 39% | statistical evaluation of proteinuria reduction ([2]; 10 mg/kg BID): statistically significant | uPCR % (normalized to placebo) ([2]; 10 mg/kg BID): 60.6% | lower survival of male compared to female rats ([3]; 3 mg/kg BID, male rats at the point of 64% control survival vs female rats): 30% | % survival ([3]; male rats, 1 mg/kg BID p.o.): 44% | mortality ([3]; male rats, 1 mg/kg BID p.o.): 56% | survival rate at the point when 64% of the male control animals were still alive ([3]; male rats, 3 mg/kg BID): 70% | statistical evaluation of mortality reduction ([3]; male rats, 3 mg/kg BID p.o.): strong numerical trend | % survival ([3]; male rats, 3 mg/kg BID p.o., 3 mg/kg): 60% and 61% | mortality ([3]; male rats, 3 mg/kg BID p.o.): 39% | % survival ([3]; male rats, 10 mg/kg BID p.o.): 72% | statistical evaluation of mortality reduction ([3]; male rats, 10 mg/kg BID p.o.): reached statistical significance | mortality ([3]; male rats, 10 mg/kg BID p.o.): 28% | effect on survival rates ([3]; male rats, 1, 3 and 10 mg/kg BID p.o.): dose-dependently increased the survival rates | reduction of proteinuria [4]: 55% | uPCR % (normalized to placebo) [4]: 44.5%

CC(C)CN1CCN(c2ccc(-c3ccc(Cl)cc3N3CCC[C@@H](n4ncc(C(=O)O)c4C(F)F)C3)cc2)CC1 [Example 3, 1-{3(R)-1-[4-Chloro-4′-(4-isobutylpiperazin-1-yl)[biphenyl]-2-yl]piperidin-3-yl}-5-(difluoromethyl)-1H-pyrazole-4-carboxylic acid]
% survival ([1]; 3 mg/kg): 92,3% | Urinary protein to creatinine ratio ([5]; female OVX rats): 1 | reduction of proteinuria ([5]; female rats with OVX): 99% | reduction of proteinuria ([5]; female rats without OVX): 88% | Urinary protein to creatinine ratio ([5]; female rats): 12 | Urinary protein to creatinine ratio ([5]; male rats): 43 | reduction of proteinuria ([5]; male rats): 57% | reduction of proteinuria [4]: 84% | uPCR % (normalized to placebo) [4]: 16.4% | % survival ([6]; female OVX rats, placebo 40%): 100% | % survival ([6]; female rats, placebo 47%): 100% | % survival ([6]; male rats, placebo 60%): 93% | survival rate in male rats lower than in female rats ([6]; once daily dosing (OD)): 7% | survival rates in female OVX rats compared to non-OVX rats ([6]; once daily dosing (OD)): no difference
